Laboratory results: ChEMBL document CHEMBL1147911, “Synthesis and evaluation of novel benzimidazole derivative [Bz-Im] and its radio/biological studies” (Bioorg Med Chem Lett, 2007)

Tests used:
[1] = biological target: T1, Cholecystokinin receptor type A (Rattus norvegicus, UniProt P30551); experiment: Displacement of [125I](BH)CCK8 from rat CCK1 after 30 mins by receptor binding assay
T1 sequence (P30551 whole entry): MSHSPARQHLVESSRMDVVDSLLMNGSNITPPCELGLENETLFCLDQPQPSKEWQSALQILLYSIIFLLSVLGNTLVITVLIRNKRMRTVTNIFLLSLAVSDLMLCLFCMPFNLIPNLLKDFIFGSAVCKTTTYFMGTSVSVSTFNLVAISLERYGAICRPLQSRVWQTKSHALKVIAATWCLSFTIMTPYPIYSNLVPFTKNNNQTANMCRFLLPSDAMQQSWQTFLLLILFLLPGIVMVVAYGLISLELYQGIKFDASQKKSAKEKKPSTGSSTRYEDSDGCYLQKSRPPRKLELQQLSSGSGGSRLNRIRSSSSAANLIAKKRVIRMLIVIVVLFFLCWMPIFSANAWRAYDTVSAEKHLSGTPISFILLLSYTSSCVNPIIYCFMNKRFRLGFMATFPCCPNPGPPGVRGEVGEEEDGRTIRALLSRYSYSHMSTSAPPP

[2] = biological target: T2, Cholecystokinin receptor type A (Cavia porcellus, UniProt Q63931); experiment: Displacement of [125I](BH)CCK8 from Guinea pig CCK1 after 30 mins by receptor binding assay
T2 sequence (Q63931 whole entry): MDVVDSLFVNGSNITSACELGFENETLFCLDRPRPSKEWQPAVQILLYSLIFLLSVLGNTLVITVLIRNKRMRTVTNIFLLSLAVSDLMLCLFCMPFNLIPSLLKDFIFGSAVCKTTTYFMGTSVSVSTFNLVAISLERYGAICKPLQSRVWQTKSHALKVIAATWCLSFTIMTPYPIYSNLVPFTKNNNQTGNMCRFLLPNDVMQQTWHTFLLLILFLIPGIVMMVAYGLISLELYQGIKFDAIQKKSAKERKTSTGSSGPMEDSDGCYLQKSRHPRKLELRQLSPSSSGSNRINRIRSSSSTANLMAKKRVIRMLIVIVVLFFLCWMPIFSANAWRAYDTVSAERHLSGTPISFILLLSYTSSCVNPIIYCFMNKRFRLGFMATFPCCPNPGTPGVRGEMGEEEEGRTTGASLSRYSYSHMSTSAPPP

[3] = system: Aspergillus flavus; experiment: Antifungal activity against Aspergillus flavus at 10 ug/ml after seven days by agar plate method; format: functional; conditions: 168 h
[4] = system: Aspergillus flavus; experiment: Antifungal activity against Aspergillus flavus at 20 ug/ml after seven days by agar plate method; format: functional; conditions: 168 h
[5] = system: Aspergillus flavus; experiment: Antifungal activity against Aspergillus flavus at 50 ug/ml after seven days by agar plate method; format: functional; conditions: 168 h
[6] = system: Aspergillus niger; experiment: Antifungal activity against Aspergillus niger at 20 ug/ml after seven days by agar plate method; format: functional; conditions: 168 h
[7] = system: Aspergillus niger; experiment: Antifungal activity against Aspergillus niger at 50 ug/ml after seven days by agar plate method; format: functional; conditions: 168 h
[8] = system: Aspergillus niger; experiment: Antifungal activity against Aspergillus niger at 10 ug/ml after seven days by agar plate method; format: functional; conditions: 168 h
[9] = system: Stomach; experiment: Biodistribution in Albino mouse stomach at 10 uCi after 1 hr; format: ADME, organism-based; conditions: in vivo
[10] = system: Stomach; experiment: Biodistribution in Albino mouse stomach at 10 uCi after 2 hr; format: ADME, organism-based; conditions: in vivo
[11] = system: Stomach; experiment: Biodistribution in Albino mouse stomach at 10 uCi after 4 hr; format: ADME, organism-based; conditions: in vivo
[12] = system: Stomach; experiment: Biodistribution in Albino mouse stomach at 10 uCi after 6 hr; format: ADME, organism-based; conditions: in vivo
[13] = system: Stomach; experiment: Biodistribution in Albino mouse stomach at 10 uCi after 8 hr; format: ADME, organism-based; conditions: in vivo
[14] = system: Intestine; experiment: Biodistribution in Albino mouse intestine at 10 uCi after 1 hr; format: ADME, organism-based; conditions: in vivo
[15] = system: Intestine; experiment: Biodistribution in Albino mouse intestine at 10 uCi after 2 hr; format: ADME, organism-based; conditions: in vivo
[16] = system: Intestine; experiment: Biodistribution in Albino mouse intestine at 10 uCi after 4 hr; format: ADME, organism-based; conditions: in vivo
[17] = system: Intestine; experiment: Biodistribution in Albino mouse intestine at 10 uCi after 6 hr; format: ADME, organism-based; conditions: in vivo
[18] = system: Intestine; experiment: Biodistribution in Albino mouse intestine at 10 uCi after 8 hr; format: ADME, organism-based; conditions: in vivo
[19] = system: Brain; experiment: Biodistribution in Albino mouse brain at 10 uCi after 2 hr; format: ADME, organism-based; conditions: in vivo
[20] = system: Brain; experiment: Biodistribution in Albino mouse brain at 10 uCi after 4 hr; format: ADME, organism-based; conditions: in vivo
[21] = system: Brain; experiment: Biodistribution in Albino mouse brain at 10 uCi after 6 hr; format: ADME, organism-based; conditions: in vivo
[22] = system: Brain; experiment: Biodistribution in Albino mouse brain at 10 uCi after 8 hr; format: ADME, organism-based; conditions: in vivo
[23] = system: Liver; experiment: Biodistribution in Albino mouse liver at 10 uCi after 1 hr; format: ADME, organism-based; conditions: in vivo
[24] = system: Liver; experiment: Biodistribution in Albino mouse liver at 10 uCi after 2 hr; format: ADME, organism-based; conditions: in vivo
[25] = system: Liver; experiment: Biodistribution in Albino mouse liver at 10 uCi after 4 hr; format: ADME, organism-based; conditions: in vivo
[26] = system: Liver; experiment: Biodistribution in Albino mouse liver at 10 uCi after 6 hr; format: ADME, organism-based; conditions: in vivo
[27] = system: Liver; experiment: Biodistribution in Albino mouse liver at 10 uCi after 8 hr; format: ADME, organism-based; conditions: in vivo
[28] = system: Spleen; experiment: Biodistribution in Albino mouse spleen at 10 uCi after 1 hr; format: ADME, organism-based; conditions: in vivo
[29] = system: Spleen; experiment: Biodistribution in Albino mouse spleen at 10 uCi after 2 hr; format: ADME, organism-based; conditions: in vivo
[30] = system: Spleen; experiment: Biodistribution in Albino mouse spleen at 10 uCi after 4 hr; format: ADME, organism-based; conditions: in vivo
[31] = system: Spleen; experiment: Biodistribution in Albino mouse spleen at 10 uCi after 6 hr; format: ADME, organism-based; conditions: in vivo
[32] = system: Spleen; experiment: Biodistribution in Albino mouse spleen at 10 uCi after 8 hr; format: ADME, organism-based; conditions: in vivo
[33] = system: Kidney; experiment: Biodistribution in Albino mouse kidney at 10 uCi after 1 hr; format: ADME, organism-based; conditions: in vivo
[34] = system: Kidney; experiment: Biodistribution in Albino mouse kidney at 10 uCi after 2 hr; format: ADME, organism-based; conditions: in vivo
[35] = system: Kidney; experiment: Biodistribution in Albino mouse kidney at 10 uCi after 4 hr; format: ADME, organism-based; conditions: in vivo
[36] = system: Kidney; experiment: Biodistribution in Albino mouse kidney at 10 uCi after 6 hr; format: ADME, organism-based; conditions: in vivo
[37] = system: Kidney; experiment: Biodistribution in Albino mouse kidney at 10 uCi after 8 hr; format: ADME, organism-based; conditions: in vivo
[38] = system: Blood; experiment: Biodistribution in Albino mouse blood at 10 uCi after 1 hr; format: ADME, organism-based; conditions: in vivo
[39] = system: Blood; experiment: Biodistribution in Albino mouse blood at 10 uCi after 2 hr; format: ADME, organism-based; conditions: in vivo
[40] = system: Blood; experiment: Biodistribution in Albino mouse blood at 10 uCi after 4 hr; format: ADME, organism-based; conditions: in vivo
[41] = system: Blood; experiment: Biodistribution in Albino mouse blood at 10 uCi after 6 hr; format: ADME, organism-based; conditions: in vivo
[42] = system: Blood; experiment: Biodistribution in Albino mouse blood at 10 uCi after 8 hr; format: ADME, organism-based; conditions: in vivo
[43] = system: Heart; experiment: Biodistribution in Albino mouse heart at 10 uCi after 1 hr; format: ADME, organism-based; conditions: in vivo
[44] = system: Heart; experiment: Biodistribution in Albino mouse heart at 10 uCi after 2 hr; format: ADME, organism-based; conditions: in vivo
[45] = system: Heart; experiment: Biodistribution in Albino mouse heart at 10 uCi after 4 hr; format: ADME, organism-based; conditions: in vivo
[46] = system: Heart; experiment: Biodistribution in Albino mouse heart at 10 uCi after 6 hr; format: ADME, organism-based; conditions: in vivo
[47] = system: Heart; experiment: Biodistribution in Albino mouse heart at 10 uCi after 8 hr; format: ADME, organism-based; conditions: in vivo

Structure (SMILES): O=C1c2ccccc2C(=O)N1Cc1c(O)ccc2c(/C=C/c3ccc(-c4ccccc4)cc3)cc3nc4ccccc4n3c12
- IC50 [1]: 197 nM
- IC50 [2]: 16400 nM

Structure (SMILES): O=C1c2ccccc2C(=O)N1Cc1c(O)ccc2c(/C=C/c3ccccc3)cc3nc4ccccc4n3c12
- IC50 [1]: 942 nM
- IC50 [2]: 4320 nM
- inhibition at 10 µg/mL [3]: 73.3%
- inhibition at 20 µg/mL [4]: 76.7%
- inhibition at 50 µg/mL [5]: 88.3%
- inhibition at 20 µg/mL [6]: 76.8%
- inhibition at 50 µg/mL [7]: 84.6%
- inhibition at 10 µg/mL [8]: 60.3%
- Drug uptake [9]: 1 % ID/g
- Drug uptake [10]: 2.5 % ID/g
- Drug uptake [11]: 3 % ID/g
- Drug uptake [12]: 7 % ID/g
- Drug uptake [13]: 9.5 % ID/g
- Drug uptake [14]: 0.5 % ID/g
- Drug uptake [15]: 0.5 % ID/g
- Drug uptake [16]: 0.2 % ID/g
- Drug uptake [17]: 3 % ID/g
- Drug uptake [18]: 3 % ID/g
- Drug uptake [19]: 0.2 % ID/g
- Drug uptake [20]: 0.45 % ID/g
- Drug uptake [21]: 1 % ID/g
- Drug uptake [22]: 1 % ID/g
- Drug uptake [23]: 18 % ID/g
- Drug uptake [24]: 25 % ID/g
- Drug uptake [25]: 18 % ID/g
- Drug uptake [26]: 15 % ID/g
- Drug uptake [27]: 15 % ID/g
- Drug uptake [28]: 10 % ID/g
- Drug uptake [29]: 15 % ID/g
- Drug uptake [30]: 14 % ID/g
- Drug uptake [31]: 12 % ID/g
- Drug uptake [32]: 11 % ID/g
- Drug uptake [33]: 5 % ID/g
- Drug uptake [34]: 7 % ID/g
- Drug uptake [35]: 2 % ID/g
- Drug uptake [36]: 5 % ID/g
- Drug uptake [37]: 5 % ID/g
- Drug uptake [38]: 3 % ID/g
- Drug uptake [39]: 2 % ID/g
- Drug uptake [40]: 2 % ID/g
- Drug uptake [41]: 0.5 % ID/g
- Drug uptake [42]: 0.5 % ID/g
- Drug uptake [43]: 1 % ID/g
- Drug uptake [44]: 0.4 % ID/g
- Drug uptake [45]: 0.3 % ID/g
- Drug uptake [46]: 0.3 % ID/g
- Drug uptake [47]: 0.2 % ID/g

Structure (SMILES): O=C1c2ccccc2C(=O)N1Cc1c(O)ccc2c(/C=C/c3ccc(O)cc3)cc3nc4ccccc4n3c12
- IC50 [1]: 665 nM
- IC50 [2]: 2940 nM
- inhibition at 10 µg/mL [3]: 60.8%
- inhibition at 20 µg/mL [4]: 73.4%
- inhibition at 50 µg/mL [5]: 92.1%
- inhibition at 20 µg/mL [6]: 83.2%
- inhibition at 50 µg/mL [7]: 83.6%
- inhibition at 10 µg/mL [8]: 60.7%
- Drug uptake [9]: 1 % ID/g
- Drug uptake [10]: 2 % ID/g
- Drug uptake [11]: 3 % ID/g
- Drug uptake [12]: 7 % ID/g
- Drug uptake [13]: 7.5 % ID/g
- Drug uptake [14]: 0.5 % ID/g
- Drug uptake [15]: 0.5 % ID/g
- Drug uptake [16]: 0.2 % ID/g
- Drug uptake [17]: 1 % ID/g
- Drug uptake [18]: 1 % ID/g
- Drug uptake [19]: 0.2 % ID/g
- Drug uptake [20]: 0.45 % ID/g
- Drug uptake [21]: 1 % ID/g
- Drug uptake [22]: 1 % ID/g
- Drug uptake [23]: 16 % ID/g
- Drug uptake [24]: 23 % ID/g
- Drug uptake [25]: 14 % ID/g
- Drug uptake [26]: 15 % ID/g
- Drug uptake [27]: 15 % ID/g
- Drug uptake [28]: 10 % ID/g
- Drug uptake [29]: 15 % ID/g
- Drug uptake [30]: 17 % ID/g
- Drug uptake [31]: 16 % ID/g
- Drug uptake [32]: 16 % ID/g
- Drug uptake [33]: 5.5 % ID/g
- Drug uptake [34]: 6 % ID/g
- Drug uptake [35]: 3 % ID/g
- Drug uptake [36]: 4.5 % ID/g
- Drug uptake [37]: 4.5 % ID/g
- Drug uptake [38]: 2.5 % ID/g
- Drug uptake [39]: 2 % ID/g
- Drug uptake [40]: 2 % ID/g
- Drug uptake [41]: 2.5 % ID/g
- Drug uptake [42]: 2.5 % ID/g
- Drug uptake [43]: 0.8 % ID/g
- Drug uptake [44]: 0.5 % ID/g
- Drug uptake [45]: 0.2 % ID/g
- Drug uptake [46]: 0.1 % ID/g
- Drug uptake [47]: 0.2 % ID/g

Structure (SMILES): C[C@@H]1[C@H](O)[C@@H](C)/C=C/C=C/C=C/C=C/C=C/C=C/C=C/[C@H](O[C@@H]2O[C@H](C)[C@@H](O)[C@H](N)[C@@H]2O)C[C@@H]2O[C@](O)(C[C@@H](O)C[C@@H](O)[C@H](O)CC[C@@H](O)C[C@@H](O)CC(=O)O[C@H]1C)C[C@H](O)[C@H]2C(=O)O [AMPHOTERICIN B]
- inhibition at 20 µg/mL [4]: 86.4%
- inhibition at 20 µg/mL [6]: 79.9%
